# Where “and” joins values, the source holds several entries; their conditions need not be identical. Equal values may be shown once.
# Key:
# [1] = test system: 17 coronavirus proteases from human and animal coronaviruses; format: cell-based
# SARS-CoV-2 [2] = experiment: microbe, parasite or virus in culture; format: cell-based; settings: Severe acute respiratory syndrome coronavirus 2; SARS-CoV-2 infected cells, dose response FIG. 3; read-out: EC50 against SARS-CoV-2
# [3] = test system: COVID-19/SARS-CoV-2 virus; format: cell-based
# SARS-CoV-2 [4] = experiment: Antiviral efficacy in hamsters challenged intranasally with SARS-CoV-2, S.C. GC376; format: in vivo, hamster; settings: for trachea PFU: trachea samples
# Description: The hamsters were sacrificed and various tissues were collected for analysis.
# SARS CoV-2 = experiment: Antiviral efficacy of GC376 and REMDESIVIR in golden Syrian hamsters challenged intranasally with SARS-CoV-2, IP; format: in vivo, golden Syrian female hamsters; settings: for body weights: IP injection for eight days, versus control animals with SARS-CoV-2 alone; for lung PFU: lung samples, days 4 and 14
# Description: The animals were sacrificed at days 4, 8, or 14 following initiation of the experiment and the various tissues were then collected for analysis. Detailed experimental design and experimental parameters can be found in FIG. 9A, FIG. 9B, and FIG. 10.
# [5] = test system: SARS-CoV-2 viral infection; experiment: Treatment of a patient suffering from COVID-19; format: in vivo; settings: human patient, intravenous, subcutaneous, or oral, daily for 21 days
# SARS-CoV-2 virus = experiment: Prophylactic treatment of a patient susceptible to COVID-19; format: in vivo; settings: human patient at risk, daily for 21 days beginning one week prior to possible exposure
# [6] = CC50 in the structure table of GC543 and GC583 (no method given); format: cell-based; settings: cells not given
smiles,measurement,setting,value
CC(C)C[C@H](NC(=O)OCc1ccccc1)C(=O)N[C@@H](C[C@@H]1CCNC1=O)C(O)S(=O)(=O)[O-].[Na+] (stereo partly drawn) [GC376],activity against coronavirus proteases,[1],"activity across all coronaviruses tested, including SARS-CoV-2"
same,EC50,SARS-CoV-2 [2],~0.81 µM
same,lowering of virus titer,[3]; 5 μM GC376 versus virus solution without GC376,approximately 15 fold
same,"PFU/ml, average","[3]; virus solution with 5 μM GC376, average of three replicate plates",2.1×10^6 pfu/ml
same,"PFU/ml, each replicate plate","[3]; virus solution with 5 μM GC376, individual plates",2.75×10^6 pfu/ml and 2.25×10^6 pfu/ml and 1.30×10^6 pfu/ml
same,body weight at 10 mg/kg/day and 25 mg/kg/day,"SARS-CoV-2 [4]; 10 mg/kg/day and 25 mg/kg/day, versus infected controls without GC376","appeared to lose more weight initially, but by the eighth day following initiation of the experiment had a body weight that was similar to the control animals"
same,lung PFU versus control,SARS-CoV-2 [4]; 100 mg/kg/day cohort,"had fewer PFUs in their lungs than the control animal, although two animals had more PFUs than the control"
same,body weights of individual hamsters,"SARS-CoV-2 [4]; each individual hamster, days 0-8, any dose",trend show for each animal to regain its normal body weight
same,trachea PFU,SARS-CoV-2 [4]; 100 mg/kg/day group,did show noticeable PFU formation from trachea samples
same,trachea PFU,SARS-CoV-2 [4]; all groups,most of the animals did not show PFUs from samples taken from the trachea
same,body weights,SARS CoV-2,maintained similar body weights to the control animals
same,lung PFU,SARS CoV-2,reduction of PFU at days 4 and 14
same,outcome after 21 days of treatment,[5],recovered from the SARS-CoV-2 infection
same,outcome after prophylactic treatment,SARS-CoV-2 virus,not have developed COVID-19 or a SARS-CoV-2 infection
O=C[C@@H](C[C@@H]1CCNC1=O)NC(=O)[C@H](CC1CCCCC1)NC(=O)OCc1ccccc1 [GC543],CC50,[6],> 100 µM
CCC(CC)COC(=O)[C@H](C)N[P@](=O)(OC[C@H]1O[C@@](C#N)(c2ccc3c(N)ncnn23)[C@H](O)[C@@H]1O)Oc1ccccc1 [reference compound],body weights,SARS CoV-2,maintained similar body weights to the control animals
same,lung PFU,SARS CoV-2,reduction of PFU at days 4 and 14
O=C[C@@H](C[C@@H]1CCNC1=O)NC(=O)[C@H](CC1CCCCC1)NC(=O)OCc1cccc(Cl)c1 [GC583],CC50,[6],> 100 µM
